Measurements taken from patent publication US9776972B2, “Pyrazole derivatives as arginine methyltransferase inhibitors and uses thereof” (priority 2013, dated 2017).
pIC50: −log10 of the molar value. Structures can show the parent of a compound that is named as a salt. Where two headings read alike, the source gives them in different places.

Tests used:
human PRMT1 = target: T1, human PRMT1 (Homo sapiens, UniProt Q99873); assay: PRMT1 Biochemical Assay (3H-SAM Flashplate, peptide substrate); conditions: single experiment or average of multiple experiments
T1 construct: GST-tagged PRMT1; made in house; host or cells: High Five insect cells (baculovirus)
T1 sequence (Q99873 with tags, fused parts or gaps): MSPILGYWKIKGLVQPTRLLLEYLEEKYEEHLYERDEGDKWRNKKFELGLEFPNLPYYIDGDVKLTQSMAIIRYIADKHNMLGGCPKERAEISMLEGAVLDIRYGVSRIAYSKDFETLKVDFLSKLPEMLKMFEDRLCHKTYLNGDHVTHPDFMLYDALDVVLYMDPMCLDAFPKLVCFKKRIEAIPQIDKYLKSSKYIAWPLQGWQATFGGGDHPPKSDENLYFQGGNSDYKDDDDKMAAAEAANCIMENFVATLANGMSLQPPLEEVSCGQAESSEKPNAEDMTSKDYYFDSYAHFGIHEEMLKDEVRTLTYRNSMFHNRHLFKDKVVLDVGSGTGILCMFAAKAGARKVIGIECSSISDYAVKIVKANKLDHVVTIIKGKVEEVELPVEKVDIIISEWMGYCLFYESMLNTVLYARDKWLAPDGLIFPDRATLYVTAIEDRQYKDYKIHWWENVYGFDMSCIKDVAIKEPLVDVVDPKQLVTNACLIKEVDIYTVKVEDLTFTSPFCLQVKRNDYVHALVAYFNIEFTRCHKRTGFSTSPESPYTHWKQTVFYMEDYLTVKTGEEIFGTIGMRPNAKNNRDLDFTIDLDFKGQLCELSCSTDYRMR
How it was run: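 GST-tagged PRMT1 from baculovirus-infected cells, preincubated with compounds 30 min at room temperature in 20 mM Bicine pH 7.6, 1 mM TCEP, 0.005% BSG, 0.002% Tween 20. Reaction started with ³H-SAM plus biotinylated peptide, stopped with 300 µM cold SAM.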

[1] = system: mono-methyl arginine in RKO cells; assay: RKO Methylation Assay, In Cell Western (ICW) for mono-methyl arginine and DNA content; format: cell-based; conditions: for EC30: Homo sapiens, RKO, 72 h; for EC30 (In Cell Western data): class symbols
How it was run: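 After fixation, mono-methyl arginine and DNA (DRAQ5) were measured by infrared In-Cell Western imaging at 700/800 nm in RKO cells exposed to compounds for 72 hours. Percent activation used DMSO wells as minimum and 20 μM reference compound as maximum; EC30 curves fitted on triplicate wells.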

[2] = read-out: EC30 (In Cell Western data, Numerical, μM)
[3] = RKO cells, 72 hours, mono-methyl arginine, percent activation, single experiment or average of multiple experiments, read-out: EC30 (In Cell Western data, Numerical)
[4] = RKO cells, 72 hours, mono-methyl arginine, percent activation

Row | Compound | pIC50 (human PRMT1) | EC30 [1, 3] [µM] | other results
1 | CNCCN(C)Cc1c[nH]nc1-c1ccc(F)cc1 [Compound 2, N^1-((3-(4-fluorophenyl)-1H-pyrazol-4-yl)methyl)-N^1,N^2-dimethylethane-1,2-diamine] | 7.24 | – | EC30 [1, 2]: 1.12 µM
2 | CNCCN(C)Cc1c[nH]nc1-c1ccc(CO)cc1 [Compound 28] | 7.95 | 10.2 | –
3 | CNCCN(C)Cc1cn(CCCC(O)CO)nc1-c1ccc(F)cc1 (stereo not drawn) [Compound 30] | 5.45 | – | –
4 | CNCCN(C)Cc1cnn(CCCC(O)CO)c1-c1ccc(F)cc1 (stereo not drawn) [Compound 31] | 6.11 | – | –
5 | CNCCN(C)Cc1c[nH]nc1-c1ccc(Oc2ccccc2)cc1 [Compound 37] | 8.56 | 0.05 | –
6 | CNCCN(C)Cc1c[nH]nc1-c1ccccc1C(F)(F)F [Compound 38] | 5.74 | – | EC30 (In Cell Western data) [1, 4]: C (“C” indicates an EC30 ≧ 12.01 μM)
7 | CNCCN(C)Cc1c[nH]nc1-c1ccc(C(=O)c2ccccc2)cc1 [Compound 45] | 8.08 | – | EC30 (In Cell Western data) [1, 4]: A (“A” indicates an EC30 ≦ 3.00 μM); EC30 (In Cell Western data, Numerical, μM) ([1]; RKO cells, 72 hours, mono-methyl arginine, percent activation, single experiment or average of multiple experiments): 0.454 µM
8 | CNCCN(C)Cc1c[nH]nc1-c1ccccc1-c1ccccc1 [Compound 46] | 5.60 | – | EC30 (In Cell Western data) [1, 4]: C (“C” indicates an EC30 ≧ 12.01 μM)
9 | CNCCN(C)Cc1c[nH]nc1-c1ccc(OC)cc1OC [Compound 55] | 6.72 | – | EC30 (In Cell Western data) [1, 4]: C (“C” indicates an EC30 ≧ 12.01 μM)
10 | CNCCN(C)Cc1c[nH]nc1-c1c(OC)cccc1OC [Compound 56] | 5.23 | – | EC30 (In Cell Western data) [1, 4]: C (“C” indicates an EC30 ≧ 12.01 μM)
11 | CNCCN(C)Cc1cn(CCC(O)CO)nc1-c1ccc(F)cc1 (stereo not drawn) [Compound 59] | 5.23 | – | –
12 | CCN(CCN)Cc1c[nH]nc1-c1ccc(F)cc1 [Compound 62] | 7.86 | > 20 | –
13 | CCCN(CCN)Cc1c[nH]nc1-c1ccc(F)cc1 [Compound 63] | 5.81 | > 20 | –
14 | CN(CCN)Cc1cnn(CCO)c1-c1ccc(F)cc1 [Compound 65] | 5.71 | – | –
15 | CN(CCN)Cc1cn(CCO)nc1-c1ccc(F)cc1 [Compound 66] | 5.62 | – | –
16 | CN(CCN)Cc1c[nH]nc1-c1ccc(C#N)cc1 [Compound 68] | 8.22 | 0.775 | –
17 | CNCCN(C)Cc1c[nH]nc1-c1ccc(Oc2cccc(OC)c2)cc1 [Compound 230] | 8.46 | 0.206 | –
18 | CNCCN(C)Cc1c[nH]nc1-c1ccc(Oc2cccc(F)c2)cc1 [Compound 231] | 8.39 | 0.23 | –
19 | CNCCN(C)Cc1c[nH]nc1-c1ccc(Oc2ccccc2)c(C(=O)NC)c1 [Compound 232] | 7.60 | 7.14 | –
20 | CNCCN(C)Cc1c[nH]nc1-c1ccc(Oc2ccccc2)c(C(=O)N(C)C)c1 [Compound 233] | 7.53 | 17.3 | –

Row | Compound | pIC50 (human PRMT1) | EC30 [1, 3] [µM] | other results
21 | CC(C)Cc1cccc(-c2n[nH]cc2CN(C)CCN)c1 [Compound 235] | 8.08 | 1.56 | –
22 | CNCCN(C)Cc1c[nH]nc1-c1ccc(OCCCO)cc1 [Compound 236] | 8.04 | 0.852 | –
23 | CNCCN(C)Cc1c[nH]nc1-c1ccc(Oc2ccccc2F)cc1 [Compound 237] | 8.69 | 0.114 | –
24 | CNCCN(C)Cc1cn(Cc2ccncc2)nc1-c1ccc(OC(C)C)cc1 [Compound 245] | 7.45 | 0.627 | –
25 | CNCCN(C)Cc1cn(Cc2cccnc2)nc1-c1ccc(OC(C)C)cc1 [Compound 246] | 7.21 | – | EC30 [1, 2]: 1.08 µM
26 | CNCCN(C)Cc1cn(Cc2ccccn2)nc1-c1ccc(OC(C)C)cc1 [Compound 247] | 6.83 | 8.26 | –
27 | CNCCN(C)Cc1cn(CC(=O)OC)nc1-c1ccc(OC(C)C)cc1 [Compound 248] | 6.67 | > 20 | –
28 | CNCCN(C)Cc1cnn(CC(=O)OC)c1-c1ccc(OC(C)C)cc1 [Compound 249] | 6.96 | – | EC30 [1, 2]: 9.53 µM
29 | CNCCN(C)Cc1cn(CC(=O)O)nc1-c1ccc(OC(C)C)cc1 [Compound 250] | 6.13 | – | EC30 [1, 2]: > 20 µM
30 | CNCCN(C)Cc1cn(CC(N)=O)nc1-c1ccc(OC(C)C)cc1 [Compound 251] | 6.56 | 18.7 | –
31 | CCn1ncc(CN(C)CCNC)c1-c1ccc(OC(C)C)cc1 [Compound 252] | 7.59 | – | EC30 [1, 2]: 1.82 µM
32 | CNCCN(C)Cc1cn(CCOC)nc1-c1ccc(OC(C)C)cc1 [Compound 253, N1-((3-(4-isopropoxyphenyl)-1-(2-methoxyethyl)-1H-pyrazol-4-yl)methyl)-N1,N2-dimethylethane-1,2-diamine hydrochloride] | 6.95 | – | EC30 [1, 2]: 8 µM
33 | CNCCN(C)Cc1cn(C2CCC2)nc1-c1ccc(OC(C)C)cc1 [Compound 254, N1-((1-cyclobutyl-3-(4-isopropoxyphenyl)-1H-pyrazol-4-yl)methyl)-N1,N2-dimethylethane-1,2-diamine hydrochloride] | 7.53 | – | EC30 [1, 2]: 2.24 µM
34 | CNCCN(C)Cc1cnn(C2CCCC2)c1-c1ccc(OC(C)C)cc1 [Compound 255] | 7.77 | – | EC30 [1, 2]: 2.66 µM
35 | CNCCN(C)Cc1cn(C2CCCCC2)nc1-c1ccc(OC(C)C)cc1 [Compound 256] | 6.88 | > 20 | –
36 | C=C(C)C(=O)Nc1cccc(-c2[nH]ncc2CN(C)CCNC)c1 [Compound 257] | 6.87 | > 20 | –
37 | C=CC(=O)Nc1cccc(-c2[nH]ncc2CN(C)CCNC)c1 [Compound 258] | 7.36 | > 20 | –
38 | CN(CCN)Cc1c[nH]nc1-c1ccc(Oc2ccccc2F)cc1 [Compound 259] | 8.88 | 0.532 | –
39 | CNCCN(C)Cc1c[nH]nc1-c1ccc(Oc2cccc(C#N)c2)cc1 [Compound 261] | 8.53 | 0.327 | –
40 | CNCCN(C)Cc1nn(C)cc1-c1ccc(OCCCOC)cc1 [Compound 266] | 6.76 | > 20 | –

Continued, in another order:

Row | pIC50 (human PRMT1) | Compound | EC30 [1, 3] [µM] | other results
41 | 8.39 | CCCc1ccc(-c2n[nH]cc2CN(C)CCNC)cc1 [Compound 20] | 0.18 | –
42 | 7.24 | CNCCN(C)Cc1c[nH]nc1-c1cccc([N+](=O)[O-])c1 [Compound 21] | – | –
43 | 6.78 | CNCCN(C)Cc1c[nH]nc1-c1cccc(C#N)c1 [Compound 22] | – | –
44 | 6.71 | CNCCN(C)Cc1c[nH]nc1-c1ccccc1OC [Compound 23] | – | –
45 | 7.07 | CNCCN(C)Cc1c[nH]nc1-c1cccc(OC)c1 [Compound 24] | – | –
46 | 7.68 | CNCCN(C)Cc1c[nH]nc1-c1ccc(OC)cc1 [Compound 25] | – | –
47 | 6.71 | CNCCN(C)Cc1c[nH]nc1-c1cccc(O)c1 [Compound 26] | – | –
48 | 7.01 | CNCCN(C)Cc1c[nH]nc1-c1ccc(O)cc1 [Compound 27] | 12.3 | –
49 | 6.75 | CNCCN(C)Cc1c[nH]nc1-c1ccc(C)cc1C [Compound 29] | – | –
50 | 6.82 | CNCCN(C)Cc1c[nH]nc1-c1ccc(N)cc1 [Compound 33] | – | –
51 | 6.47 | CCNC(=O)c1cccc(-c2n[nH]cc2CN(C)CCNC)c1 [Compound 43] | – | –
52 | 6.78 | CNCCN(C)Cc1c[nH]nc1-c1ccc(F)cc1F [Compound 49] | – | –
53 | 6.83 | CNCCN(C)Cc1c[nH]nc1-c1cc(F)ccc1F [Compound 50] | – | –
54 | 7.89 | CNCCN(C)Cc1c[nH]nc1-c1ccc(F)c(F)c1 [Compound 51] | – | –
55 | 7.90 | CNCCN(C)Cc1c[nH]nc1-c1ccc(OC)c(F)c1 [Compound 52] | – | –
56 | 8.15 | CNCCN(C)Cc1c[nH]nc1-c1cccc2ccccc12 [Compound 57] | – | –
57 | 8.24 | CNCCN(C)Cc1c[nH]nc1-c1ccc2ccccc2c1 [Compound 58] | – | –
58 | 7.22 | CNCCN(C)Cc1c[nH]nc1-c1cc(C(C)C)cc(C(C)C)c1 [Compound 229, N^1-((3-(3,5-diisopropylphenyl)-1H-pyrazol-4-yl)methyl)-N^1,N^2-dimethylethane-1,2-diamine] | 8.71 | –
59 | 8.60 | CNCCN(C)Cc1n[nH]cc1-c1ccc(Oc2cccc(OC)c2)cc1 [Compound 239] | 1.28 | –
60 | 7.42 | CNCCN(C)Cc1n[nH]cc1-c1ccc(Oc2ccccc2)c(C(=O)NC)c1 [Compound 240] | 6.45 | –
61 | 7.28 | CNCCN(C)Cc1n[nH]cc1-c1ccc(Oc2ccccc2)c(C(=O)N(C)C)c1 [Compound 241] | 10.4 | –
62 | 6.43 | CNCCN(C)Cc1n[nH]cc1-c1cc(C(C)C)cc(C(C)C)c1 [Compound 242] | > 20 | –
63 | 7.75 | CNCCN(C)Cc1cn(C)nc1-c1ccc(OC(C)C)cc1 [Compound 243, N^1-((3-(4-isopropoxyphenyl)-1-methyl-1H-pyrazol-4-yl)methyl)-N1,N2-dimethylethane-1,2-diamine] | 0.809 | –
64 | 7.62 | CNCCN(C)Cc1c[nH]nc1-c1cc(OC(C)C)cc(C(C)C)c1 [Compound 260] | 6.07 | –
65 | 8.25 | CNCCN(C)Cc1c[nH]nc1-c1ccc(Oc2cccc(C(C)C)c2)cc1 [Compound 262] | 1.23 | –
66 | 8.25 | CNCCN(C)Cc1c[nH]nc1-c1cc(Cl)c(OC(C)C)c(Cl)c1 [Compound 265, N^1-((3-(3,5-dichloro-4-isopropoxyphenyl)-1H-pyrazol-4-yl)methyl)-N^1,N^2-dimethylethane-1,2-diamine] | 0.503 | –
67 | 8.46 | CNCCN(C)Cc1n[nH]cc1-c1ccc(Oc2cccc(C#N)c2)cc1 [Compound 267] | 0.694 | –
68 | 8.34 | CNCCN(C)Cc1n[nH]cc1-c1ccc(Oc2cccc(C(=O)NC)c2)cc1 [Compound 268] | 3.69 | –
